Data reported in patent US20220356472A1, “METHODS AND COMPOSITIONS FOR TYPE 2 DIABETES THERAPY” (Sanford Burnham Prebys Medical Discovery Institute, priority 2019, published 2022).

Columns and labels:
Assay type in all cases: cell-based, mouse
[1] = test system: islets isolated from WT C57BL/6 mice; assay: Gene expression in isolated islets treated with compounds
Protocol: For this purpose, the effect of a membrane-permeable intracellular Ca^2+-chelator, BAPTA-AM was tested on islets isolated from WT C57BL/6 mice. An overnight incubation with BAPTA-AM (10 μM) reduced both Ins1 and Ins2 mRNA levels (FIG. 6A, “Insulin” panel, Ctrl versus BAPTA-AM). […] On the other hand, tunicamycin (Tm, 0.5 μg/mL) in combination with BAPTA-AM rescued both Ins1 and Ins2 mRNA levels. Concomitantly, Chop and sXBP1 mRNAs, as well as MP mRNA were induced by Tm treatment (FIG. 6A, BAPTA-AM columns versus BAPTA/Tm columns).

[2] = test system: islets isolated from WT C57BL/6 mice; assay: as above; details: HFn 50 nM, vs Ctrl
WT and Chop βKO islets = assay: Ins1/Ins2 transcription in independent batch of islets treated with tunicamycin; details: tunicamycin 5 μg/mL
[3] = BAPTA-AM 10 μM, overnight incubation, vs Ctrl
[4] = Tm 0.5 μg/mL in combination with BAPTA-AM, vs BAPTA-AM

Compound: CC(=O)OCOC(=O)CN(CC(=O)OCOC(C)=O)c1ccccc1OCCOc1ccccc1N(CC(=O)OCOC(C)=O)CC(=O)OCOC(C)=O [BAPTA-AM]
- Chop level [1, 3]: reduced
- Ins1 mRNA level [1, 3]: reduced
- Ins2 mRNA level [1, 3]: reduced
- sXBP1 level [1, 3]: reduced

Compound: O=C(CC1NCCCC1O)Cn1cnc2cc(Br)c(Cl)cc2c1=O (centres unmarked) [halofuginone]
- ATF4 induction [2]: pronounced ATF4 and Chop induction
- Chop induction [2]: pronounced ATF4 and Chop induction
- Ins1 mRNA [2]: reduced
- Ins2 mRNA [2]: reduced

Compound: tunicamycin
- Chop mRNA [1, 4]: induced
- Ins1 mRNA level [1, 4]: rescued
- Ins2 mRNA level [1, 4]: rescued
- MP mRNA [1, 4]: induced
- sXBP1 mRNA [1, 4]: induced
- Ins1/Ins2 transcription (WT and Chop βKO islets): positive regulation
